Results from US20250074910A1, “MENIN INHIBITOR AND USE THEREOF” (HITGEN INC., priority 2021, published 2025).

Experiments:
[1] = target: Menin/MLL-4-43 peptide interaction (Homo sapiens (Human), UniProt O00255); assay: Menin-MLL interaction inhibitory activity assay (fluorescence polarization competition); type: binding; conditions: FITC-MLL4-43-peptide, Menin recombinant protein
Method: Test Example 1: Menin-MLL Interaction Inhibitory Activity Assay
The inhibition of Menin/MLL-4-43 peptide interaction by small molecule inhibitors was quantitatively detected by fluorescence polarization competition assay. The experiment was performed in a 384-well plate (Corning, Cat #3575) using a reaction buffer consisting of 50 mM Tris, pH 7.5, 50 mM NaCl, and 1 mM DTT. A 40 μL reaction system included 10 μL of 8 nM Menin recombinant protein and 10 μL of the test compound at different concentrations. The compound was pre-incubated with Menin protein for 15 min, and then 20 μL of 10 nM FITC-MLL4-43-peptide was added. After incubation on a shaker at 25° C. for 60 min, the fluorescence polarization signal (FP 485 520 520) was read using BMG PHERAStar detection. The experimental data was analyzed and processed by GraphPad Prism 6 software to obtain the IC50 value. The control compound 1 was prepared by referring to the method of Example 64 in WO2017214367.

[2] = test system: MV4-11; assay: Cell proliferation inhibition (CellTiter-Glo), MV4-11; type: cell-based; conditions: MV4-11 cells
Method: (§1) Test Example 2: Test of the Inhibitory Ability of Menin-MLL Interaction Inhibitors on Cell Proliferation
(§2) The inhibitory ability of the compounds of the present disclosure on the proliferation of tumor cell lines (including cell lines containing MLL fusion protein such as MV4-11, MOLM-13, THP-1 and NOMO-1, control cell lines without MLL fusion protein such as HL-60, K562 and MOLM-16, and cell lines containing NPM1 mutation such as OCI-AML3) was evaluated by using the cell viability analysis method. The cells were plated in 96-well plates at a certain concentration (e.g., 5,000-20,000 cells/well), and then an equal volume of culture medium containing 2 times the final concentration of the test compound (the final concentration ranging 10 from 1 nM to 10 μM) was added. The plates were placed in an incubator and cultured at 37° C. and 5% CO2 for 72-168 h. Before the test, an equal volume of CellTiter-Glo® Luminescent reagent was added, and the plate was incubated at room temperature for 10 min before detection using an ELISA reader (BMG LABTECH). The data were analyzed using GraphPad Prism software to obtain the IC50 value and compound fitting curve. The control compound 1 was prepared by referring to the method of Example 64 in WO2017214367.

[3] = test system: OCI-AML3; assay: Cell proliferation inhibition (CellTiter-Glo), OCI-AML3 (NPM1 mutation); type: cell-based; conditions: OCI-AML3 cells
Method: as §1, §2

Menin/MLL-4-43 peptide interaction, sequence (O00255 whole entry, species assumed): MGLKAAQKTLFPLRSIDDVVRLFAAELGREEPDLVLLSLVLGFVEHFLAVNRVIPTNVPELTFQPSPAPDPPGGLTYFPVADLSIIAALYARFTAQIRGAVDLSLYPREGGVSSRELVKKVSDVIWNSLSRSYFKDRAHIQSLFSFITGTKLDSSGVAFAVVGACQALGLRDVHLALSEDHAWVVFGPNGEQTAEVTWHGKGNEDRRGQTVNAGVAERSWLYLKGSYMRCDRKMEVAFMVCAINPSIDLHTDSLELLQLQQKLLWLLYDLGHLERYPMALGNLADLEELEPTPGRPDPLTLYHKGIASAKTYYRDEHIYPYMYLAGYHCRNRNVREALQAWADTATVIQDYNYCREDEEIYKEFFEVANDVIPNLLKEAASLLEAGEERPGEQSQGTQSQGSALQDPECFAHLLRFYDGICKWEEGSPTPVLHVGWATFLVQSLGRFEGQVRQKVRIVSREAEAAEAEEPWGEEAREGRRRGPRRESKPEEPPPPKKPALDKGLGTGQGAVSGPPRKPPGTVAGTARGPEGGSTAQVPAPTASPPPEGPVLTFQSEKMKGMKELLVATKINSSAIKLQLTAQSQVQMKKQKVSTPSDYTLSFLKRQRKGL

| IC50 [1] [µM] | GI50 ([2]; 72 h) [nM] | GI50 ([2]; Homo sapiens, MV4-11, 72 h) [nM] | GI50 ([3]; Homo sapiens, OCI-AML-3, 168 h) [nM] | GI50 ([3]; 168 h) [nM] | SMILES |
| --- | --- | --- | --- | --- | --- |
| 0.0349 | 82.8 | – | – | – | CCN(C(=O)c1cc(F)ccc1Oc1nncnc1N1CC2(CCN(C[C@H]3CC[C@]4(CC3)CC(C)C(=O)N4)CC2)C1)C(C)C (single isomer, unassigned) [Example 40-2] |
| 0.0445 | – | – | – | – | [2H]C([2H])([2H])C1C[C@]2(CC[C@@H](CN3CCC4(CC3)CN(c3ncnnc3Oc3ccc(F)cc3C(=O)N(CC)C(C)C)C4)CC2)NC1=O (single isomer, unassigned) [Example 42-2] |
| 0.036 | – | 74.4 | – | – | CCN(C(=O)c1cc(F)ccc1Oc1cncnc1N1CC2(CCN(CC3CC4CCC3CC43COC(=O)N3)CC2)C1)C(C)C (single isomer, unassigned) [Example 50-1] |
| 0.0399 | 69.1 | – | – | – | CCN(C(=O)c1cc(F)ccc1Oc1cncnc1N1CC2(CCN(CC3CC4CCC3CC43COC(=O)N3)CC2)C1)C(C)C (single isomer, unassigned) [Example 50-2] |
| 0.135 | – | – | – | – | CC(C)N(C(=O)c1cc(F)ccc1Oc1nncnc1N1CC2(CCN(CC3CC4CCC3CC43COC(=O)N3)CC2)C1)C(C)C (single isomer, unassigned) [Example 52-1] |
| 0.0939 | – | – | – | – | CC(C)N(C(=O)c1cc(F)ccc1Oc1nncnc1N1CC2(CCN(CC3CC4CCC3CC43COC(=O)N3)CC2)C1)C(C)C (single isomer, unassigned) [Example 52-2] |
| 0.0909 | – | – | – | – | CC(C)N(C(=O)c1cc(F)ccc1Oc1nncnc1N1CC2(CCN(CC3CC4CCC3CC43CCC(=O)N3)CC2)C1)C(C)C (centres unmarked) [Example 15-1] |
| – | – | 130 | – | – | CC(C)N(C(=O)c1cc(F)ccc1Oc1nncnc1N1CC2(CCN(CC3CC4CCC3CC43CCC(=O)N3)CC2)C1)C1CC1 (centres unmarked) [Example 16-1] |
| 0.163 | – | – | – | – | CC(C)N(C(=O)c1cc(F)ccc1Oc1nncnc1N1CC2(CCN(CC3CC4CCC3CC43CCC(=O)N3)CC2)C1)C1CC1 (centres unmarked) [Example 16-2] |
| 0.0224 | – | – | – | – | CC1C[C@]2(CC[C@@H](CN3CCC4(CC3)CN(c3ncnnc3Oc3ccc(F)cc3C(=O)N(C(C)C)C(C)C)C4)CC2)NC1=O (some centres unmarked) [Example 41-2] |

The remaining lines, values behind:

| SMILES | IC50 [1] [µM] | GI50 ([2]; 72 h) [nM] | GI50 ([2]; Homo sapiens, MV4-11, 72 h) [nM] | GI50 ([3]; Homo sapiens, OCI-AML-3, 168 h) [nM] | GI50 ([3]; 168 h) [nM] |
| --- | --- | --- | --- | --- | --- |
| CCN(C(=O)c1cc(F)ccc1Oc1cncnc1N1CC2(CCN(CC3CC4CCC3CC43CCC(=O)N3)CC2)C1)C(C)C (single isomer, unassigned) [Example 3-2] | 0.113 | 86.1 | – | – | – |
| CCN(C(=O)c1cc(F)ccc1Oc1cncnc1N1CC2(CCN(CC3CC4CCC3CC43CCC(=O)N3)CC2)C1)C(C)C (single isomer, unassigned) [Example 3] | 0.024 | – | 94.7 | – | – |
| CCN(C(=O)c1cc(F)ccc1Oc1cncnc1N1CC2(CCN(CC3CC4CCC3CC43CCC(=O)N3)CC2)C1)C(C)C (single isomer, unassigned) [Example 4-1] | 0.0121 | 55 | – | – | – |
| CCN(C(=O)c1cc(F)ccc1Oc1cncnc1N1CC2(CCN(CC3CC4CCC3CC43CCC(=O)N3)CC2)C1)C(C)C (single isomer, unassigned) [Example 4-2] | 0.0607 | – | – | – | – |
| CCN(C(=O)c1cc(F)ccc1Oc1cncnc1N1CC2(CCN(CC3CC4CCC3CC43CCC(=O)N3)CC2)C1)C(C)C (single isomer, unassigned) [Example 4] | 0.029 | 61 | – | – | – |
| CC(C)N(C(=O)c1cc(F)ccc1Oc1cncnc1N1CC2(CCN(CC3CC4CCC3CC43CCC(=O)N3)CC2)C1)C(C)C (single isomer, unassigned) [Example 13-1] | 0.0213 | – | 82.6 | – | – |
| CC(C)N(C(=O)c1cc(F)ccc1Oc1cncnc1N1CC2(CCN(CC3CC4CCC3CC43CCC(=O)N3)CC2)C1)C(C)C (single isomer, unassigned) [Example 13-1a] | 0.177 | – | – | – | – |
| CC(C)N(C(=O)c1cc(F)ccc1Oc1cncnc1N1CC2(CCN(CC3CC4CCC3CC43CCC(=O)N3)CC2)C1)C(C)C (single isomer, unassigned) [Example 13-2] | 0.0249 | 49.7 | – | – | – |
| CC(C)N(C(=O)c1cc(F)ccc1Oc1cncnc1N1CC2(CCN(CC3CC4CCC3CC43CCC(=O)N3)CC2)C1)C(C)C (single isomer, unassigned) [Example 13-2a] | 0.0165 | 25.2 | – | – | – |
| CC(C)N(C(=O)c1cc(F)ccc1Oc1cncnc1N1CC2(CCN(CC3CC4CCC3CC43CCC(=O)N3)CC2)C1)C(C)C (single isomer, unassigned) [Example 13-2b] | 0.142 | 153 | – | – | – |
| CC(C)N(C(=O)c1cc(F)ccc1Oc1nncnc1N1CC2(CCN(CC3CC4CCC3CC43CCC(=O)N3)CC2)C1)C(C)C (single isomer, unassigned) [Example 15-1b] | 0.142 | – | – | – | – |
| CC(C)N(C(=O)c1cc(F)ccc1Oc1cncnc1N1CC2(CCN(CC3CC4CCC3CC43COC(=O)N3)CC2)C1)C(C)C (single isomer, unassigned) [Example 51-1b] | 0.0467 | – | 16.1 | 20.3 | – |
| CC(C)N(C(=O)c1cc(F)ccc1Oc1cncnc1N1CC2(CCN(CC3CC4CCC3CC43COC(=O)N3)CC2)C1)C(C)C (single isomer, unassigned) [Example 51-2a] | 0.0707 | 11.7 | – | – | 31.5 |
| CC(C)N(C(=O)c1cc(F)ccc1Oc1cncnc1N1CC2(CCN(CC3CC4CCC3CC43COC(=O)N3)CC2)C1)C(C)C (single isomer, unassigned) [Example 51-2b] | 0.141 | – | – | – | – |
| CC(C)N(C(=O)c1cc(F)ccc1Oc1nncnc1N1CC2(CCN(CC3CC4CCC3CC43COC(=O)N3)CC2)C1)C(C)C (single isomer, unassigned) [Example 52-1b] | 0.0387 | 11.9 | – | 40 | – |
| CC(C)N(C(=O)c1cc(F)ccc1Oc1nncnc1N1CC2(CCN(CC3CC4CCC3CC43COC(=O)N3)CC2)C1)C(C)C (single isomer, unassigned) [Example 52-2a] | 0.0819 | 43.6 | – | – | 47.9 |
| CC(C)N(C(=O)c1cc(F)ccc1Oc1nncnc1N1CC2(CCN(CC3CC4CCC3CC43COC(=O)N3)CC2)C1)C(C)C (single isomer, unassigned) [Example 52-2b] | 0.198 | – | – | – | 50.6 |
| CC(C)N(C(=O)c1cc(F)ccc1Oc1nncnc1N1CC2(CCN(C[C@H]3CC[C@@]4(CCC(=O)N4)CC3)CC2)C1)C1CC1 [Example 11] | 0.167 | – | – | – | – |
| CCN(C(=O)c1cc(F)ccc1Oc1nncnc1N1CC2(CCN(CC3CC4CCC3CC43CCC(=O)N3)CC2)C1)C(C)C (centres unmarked) [Example 14-1] | 0.103 | – | – | – | – |
| CCN(C(=O)c1cc(F)ccc1Oc1cncnc1N1CC2(CCN(C[C@H]3CC[C@]4(CC3)CC(C)(C)C(=O)N4)CC2)C1)C(C)C [Example 21] | 0.0098 | – | 13.1 | 39.8 | – |
| CC(C)N(C(=O)c1cc(F)ccc1Oc1cncnc1N1CC2(CCN(C[C@H]3CC[C@]4(CC3)CC(C)(C)C(=O)N4)CC2)C1)C(C)C [Example 22] | 0.0166 | – | 11.3 | 24 | – |
| CC(C)N(C(=O)c1cc(F)ccc1Oc1nncnc1N1CC2(CCN(C[C@H]3CC[C@]4(CC3)CC(C)(C)C(=O)N4)CC2)C1)C(C)C [Example 27] | 0.0163 | – | 13 | 32.1 | – |
| CC(C)N(C)C(=O)c1cc(F)ccc1Oc1nncnc1N1CC2(CCN(C[C@H]3CC[C@]4(CC3)CC(C)(C)C(=O)N4)CC2)C1 [Example 28] | 0.134 | – | – | – | – |
| [2H]C([2H])([2H])C1(C([2H])([2H])[2H])C[C@]2(CC[C@@H](CN3CCC4(CC3)CN(c3ncnnc3Oc3ccc(F)cc3C(=O)N(CC)C(C)C)C4)CC2)NC1=O [Example 33] | 0.0084 | – | 20.5 | – | – |
| [2H]C([2H])([2H])C1(C([2H])([2H])[2H])C[C@]2(CC[C@@H](CN3CCC4(CC3)CN(c3ncnnc3Oc3ccc(F)cc3C(=O)N(C(C)C)C(C)C)C4)CC2)NC1=O [Example 34] | 0.0064 | – | 12.6 | – | – |
| CCN(C(=O)c1cc(F)ccc1Oc1cncnc1N1CC2(CCN(C[C@H]3CC[C@]4(CC3)C[C@@H](COC)C(=O)N4)CC2)C1)C(C)C [Example 35] | 0.0036 | – | 11.7 | – | – |
| COC[C@@H]1C[C@]2(CC[C@@H](CN3CCC4(CC3)CN(c3ncncc3Oc3ccc(F)cc3C(=O)N(C(C)C)C(C)C)C4)CC2)NC1=O [Example 36] | 0.0044 | – | 13.1 | – | – |
| CC1C[C@]2(CC[C@@H](CN3CCC4(CC3)CN(c3ncncc3Oc3ccc(F)cc3C(=O)N(C(C)C)C(C)C)C4)CC2)NC1=O (some centres unmarked) [Example 39] | 0.0238 | – | 20 | – | – |
| C=C1C[C@]2(CC[C@@H](CN3CCC4(CC3)CN(c3ncncc3Oc3ccc(F)cc3C(=O)N(C(C)C)C(C)C)C4)CC2)NC1=O [Example 62] | 0.0199 | – | 34.8 | – | – |
